Experimental data: ChEMBL document CHEMBL5032524, “Discovery of novel IDO1 inhibitors targeting the protein's apo form through scaffold hopping from holo-IDO1 inhibitor” (Bioorg Med Chem Lett, 2021)

Experiments:
[1] = target: T1, Indoleamine 2,3-dioxygenase 1 (Homo sapiens, UniProt P14902); assay: Inhibition of recombinant human IDO1
[2] = target: T1, Indoleamine 2,3-dioxygenase 1; assay: Inhibition of IDO1 in human HeLa cells; format: cell-based

T1 sequence (P14902 whole entry): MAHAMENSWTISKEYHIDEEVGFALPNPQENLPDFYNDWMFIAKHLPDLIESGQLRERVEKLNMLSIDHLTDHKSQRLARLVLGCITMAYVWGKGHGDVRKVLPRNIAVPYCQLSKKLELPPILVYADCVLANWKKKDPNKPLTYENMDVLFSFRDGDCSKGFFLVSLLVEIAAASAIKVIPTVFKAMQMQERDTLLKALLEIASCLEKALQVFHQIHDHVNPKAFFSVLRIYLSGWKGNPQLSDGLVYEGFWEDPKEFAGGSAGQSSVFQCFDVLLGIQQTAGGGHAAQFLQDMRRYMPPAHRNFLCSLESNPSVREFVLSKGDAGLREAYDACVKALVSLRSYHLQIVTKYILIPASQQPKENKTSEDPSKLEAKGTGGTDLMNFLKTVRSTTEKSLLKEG

| IC50 [1] [µM] | IC50 [2] [µM] | SMILES |
| --- | --- | --- |
| 2.3 | 0.76 | Cc1ccc(NC(=O)Nc2cc(/C(=N/O)Nc3ccc(F)c(Br)c3)ccc2N(CC(C)C)CC(C)C)cc1 |
| > 3 | 2.09 | CC(C)CN(CC(C)C)c1ccc(/C(=N/O)Nc2ccc(F)c(Br)c2)cc1NC(=O)Nc1ccc(C(F)(F)F)cc1 |
| > 3 | 3.11 | CCCCNC(=O)Nc1cc(/C(=N/O)Nc2ccc(F)c(Br)c2)ccc1N(CC(C)C)CC(C)C |
| > 3 | 0.86 | CC(C)CN(CC(C)C)c1ccc(/C(=N/O)Nc2ccc(F)c(Br)c2)cc1NC(=O)Nc1cncnc1 |
| > 3 | 1.34 | CC(C)CN(CC(C)C)c1ccc(/C(=N/O)Nc2ccc(F)c(Br)c2)cc1NC(=O)NC1CCCCC1 |
| 2.9 | 2.61 | CCCNC(=O)Nc1cc(/C(=N/O)Nc2ccc(F)c(Br)c2)ccc1N(CC(C)C)CC(C)C |
| 1.56 | 1.34 | Cc1ccc(NC(=O)Nc2cc(/C(=N/O)Nc3ccc(C)cc3)ccc2N(CC(C)C)CC(C)C)cc1 |
| 0.127 |  | CCCNC(=O)Nc1nonc1/C(=N/O)Nc1ccc(F)c(Br)c1 |
| 2.32 | 0.44 | Cc1ccc(N/C(=N\O)c2ccc(N(CC(C)C)CC(C)C)c(NC(=O)Nc3cncnc3)c2)cc1 |
| 1.49 | 0.44 | CC(C)CN(CC(C)C)c1ccc(/C(=N/O)Nc2ccc(F)c(Br)c2)cc1NC(=O)Nc1ccc(Cl)cc1 |
